The values below are quoted from earlier work in patent publication US11433115B2, “Glycopeptide antibiotics liquid formulations and methods and uses thereof” (SOMERSET THERAPEUTICS, LLC, priority 2020, dated 2022).

Where two headings read alike, the source gives them in different places.

The test system of one data set is rats. The conditions noted are these: rat, in vivo.
For data set [1] the following is noted: orally-dosed pigs, ˜382 mg/kg.
The test system of a further data set is acylases. The conditions noted are these: via the action of acylases.

With `CSCCC(NC(C)=O)C(=O)O` (racemic) [N-acetyl-DL-methionine], the 50% lethal dose (LD50) in the data set on rats (ip) is 6700 mg/kg.

For the compound `CC(=O)N[C@H](C)C(=O)O` [NADA, N-acetyl D-alanine], the embryo-fetal toxicity entry (animal reproduction studies) is “caused fetal malformations”.

Regarding `CSCC[C@@H](NC(C)=O)C(=O)O` [NADM, N-acetyl-D-methionine], in data set [1], the “hydrolysis to D- and L-methionine” value was “only minimally hydrolyzed”; the “time to peak plasma concentration after dosing” value is 15 min.

For the compound `CSCC[C@H](NC(C)=O)C(=O)O` [NALM, N-acetyl-L-methionine], in the data set with acylases, the “hydrolysis to L-methionine and acetic acid” value is “completely hydrolyzed”. For the same compound, the LD50 with rats (iv) is given as 435 mg/kg.

Take polyethylene glycol [PEG 400]: the embryo-fetal toxicity result (in vivo) is listed as “caused fetal malformations”.
